For 38 compounds, IC50 and inhibition results are on record in patent US20190185479A1, “BICYCLIC NITROGENATED HETEROCYCLIC COMPOUND” (MITSUBISHI TANABE PHARMA CORPORATION, priority 2016, published 2019).

This experiment addresses T1, Human PDE7B (hPDE7B) (Homo sapiens, UniProt Q9NP56).
T1 construct: made in house; host or cells: COS-7 cells
The experiment in a line: Measurement of PDE7 inhibitory activity (Experimental Example 1; residual cAMP, LANCE Ultra cAMP TR-FRET). It is filed as biochemical. The conditions noted are these: for IC50: cAMP 3 nmol/L, room temperature 60 minutes; for inhibition at 1 µM: compound at 1 μmol/L. As for the experimental part: Human PDE7B (hPDE7B) was isolated from COS-7 cells transfected with plasmids encoding hPDE7B according to the method described in a reference, Biochemical and Biophysical Research Communication, 271, p. 575-583 (2000). The resulting enzyme solution was used in the PDE assay.
PDE7 inhibitory assay was carried out by reacting the mixture of a compound, hPDE7B, and cAMP, and measuring the residual cAMP by a detection method using LANCE (registered trademark) Ultra cAMP Detection Kit (ParkinElmer). The compound was dissolved in DMSO, and diluted so that the concentration would become 50 times of the final concentration. The hPDE7B and cAMP were diluted with an assay buffer (50 mmol/L Tris-HCl, 1 mmol/L MgCl2, 0.1% BSA, 0.5 mmol/L DTT, pH7.5) so that the hPDE7B would have an appropriate enzyme activity and the concentration of cAMP would become 6 nmol/L. To a 96 well plate were added the compound (2 μL) (DMSO final concentration: 2%), hPDE7B (48 μL), and cAMP (50 μL) (concentration at the reaction: 3 nmol/L), and the resulting mixture was reacted at room temperature for 60 minutes. The reaction solution (20 μL) was subjected to a TR-FRET method according to the protocol specified by the kit to measure the concentration of the residual cAMP. In the assay, to a tracer solution specified by the kit was added 0.5 mmol/L of 3-isobutyl-1-methylxanthine (IBMX, nonselective PDE inhibitor) in order to stop the PDE enzyme reaction after the completion of reaction until the measurement.
The reaction without a compound was defined as “0% inhibition”, the reaction without hPDE7B was defined as “100% inhibition”, and the inhibition rate of the compound was calculated by the following equation.
Inhibition rate of compound (%)={(Residual cAMP concentration at the addition of compound−Residual cAMP concentration in 0% inhibition)/(Residual cAMP concentration in 100% inhibition−Residual cAMP concentration in 0% inhibition)}×100

T1 sequence (Q9NP56 whole entry): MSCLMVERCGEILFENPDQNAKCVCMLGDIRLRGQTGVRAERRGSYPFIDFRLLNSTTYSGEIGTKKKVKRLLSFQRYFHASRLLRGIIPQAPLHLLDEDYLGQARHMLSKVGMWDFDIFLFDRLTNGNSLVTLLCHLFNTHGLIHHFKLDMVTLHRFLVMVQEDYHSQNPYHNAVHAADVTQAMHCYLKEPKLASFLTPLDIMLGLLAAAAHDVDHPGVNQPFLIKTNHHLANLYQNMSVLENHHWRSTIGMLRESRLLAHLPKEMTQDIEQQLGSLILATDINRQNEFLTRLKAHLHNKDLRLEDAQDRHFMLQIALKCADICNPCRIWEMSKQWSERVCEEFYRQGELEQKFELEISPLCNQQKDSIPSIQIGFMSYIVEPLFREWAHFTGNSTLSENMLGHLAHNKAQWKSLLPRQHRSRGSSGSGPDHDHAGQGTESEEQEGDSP

In the case of `Nc1ncnc2c1nnn2C1CCCCC1(F)F` (single isomer, unassigned) [Example 114, 3-(2,2-difluorocyclohexyl)-3H-[1,2,3]triazolo[4,5-d]pyrimidin-7-amine], it took 190 nM to reach half-maximal inhibition (IC50).

For the compound `CC1CCC(C(F)(F)F)CC1c1nnc2c(N)nccn12` (single isomer, unassigned) [Example 173, 3-[2-methyl-5-(trifluoromethyl)cyclohexyl][1,2,4]triazolo[4,3-a]pyrazin-8-amine], the IC50 is greater than 1000 nM and the inhibition at 1 µM came out at 3%.

`CC1CCC(F)(F)CC1c1nnc2c(N)nccn12` (single isomer, unassigned) [Example 176, 3-(cis-5,5-difluoro-2-methylcyclohexyl) [1,2,4]triazolo[4,3-a]pyrazin-8-amine] showed an IC50 greater than 1000 nM and an inhibition at 1 µM of 28%.

As to `CC1(C)CC(c2nnc3c(N)nccn23)CC(F)(F)C1` (single isomer, unassigned) [Example 178, 3-(3,3-difluoro-5,5-dimethylcyclohexyl) [1,2,4]triazolo[4,3-a]pyrazin-8-amine], the IC50 was greater than 1000 nM and the inhibition at 1 µM is 33%.

`CC1CCCCC1n1nnc2c(N)ncnc21` (single isomer, unassigned) [Example 190, 3-(cis-2-methylcyclohexyl)-3H-[1,2,3]triazolo[4,5-d]pyrimidin-7-amine] displayed an IC50 of 220 nM.

For `CC1CCCCC1n1nnc2c(N)ncnc21` (single isomer, unassigned) [Example 193, 3-(trans-2-methylcyclohexyl)-3H-[1,2,3]triazolo[4,5-d]pyrimidin-7-amine], the IC50 came to 430 nM.

Compound `CC1CCCC(n2nnc3c(N)ncnc32)C1` (single isomer, unassigned) [Example 197, 3-(cis-3-methylcyclohexyl)-3H-[1,2,3]triazolo[4,5-d]pyrimidin-7-amine] had an IC50 of 340 nM.

`CC1CCCC(n2nnc3c(N)ncnc32)C1` (single isomer, unassigned) [Example 198, 3-(trans-3-methylcyclohexyl)-3H-[1,2,3]triazolo[4,5-d]pyrimidin-7-amine]: half-maximal inhibition (IC50) was put at 70 nM.

The compound `Nc1ncnc2c1nnn2C1CCCC(C(F)F)C1` (single isomer, unassigned) [Example 201] came in with a 50% inhibitory concentration (IC50) greater than 1000 nM and an inhibition at 1 µM of 20%.

Take `Nc1ncnc2c1nnn2C1CCCC(C(F)(F)F)C1` (single isomer, unassigned) [Example 203, 3-[cis-3-(trifluoromethyl)cyclohexyl]-3H-[1,2,3]triazolo[4,5-d]pyrimidin-7-amine]: the IC50 is greater than 1000 nM and the inhibition at 1 µM is 27%.

`CC1(C)CCCC(c2nnc3c(N)nccn23)C1` (single isomer, unassigned) [Example 206, 3-(3,3-dimethylcyclohexyl) [1,2,4]triazolo[4,3-a]pyrazin-8-amine] had an IC50 greater than 1000 nM and an inhibition at 1 µM of 44%.

`Nc1nccn2c(C3CCCC4(CC4)C3)nnc12` (single isomer, unassigned) [Example 209, 3-(spiro[2,5]oct-5-yl) [1,2,4]triazolo[4,3-a]pyrazin-8-amine] showed a concentration for half-maximal inhibition (IC50) of 130 nM. In other words, the sub-micromolar range.

`Nc1nccn2c(C3CCCC(C(F)(F)F)C3)nnc12` (single isomer, unassigned) [Example 211, 3-[cis-3-(trifluoromethyl)cyclohexyl][1,2,4]triazolo[4,3-a]pyrazin-8-amine] returned an IC50 greater than 1000 nM and an inhibition at 1 µM of 20%.

Consider `CC1CC(c2nnc3c(N)nccn23)CC(F)(F)C1` (single isomer, unassigned) [Example 215], for which the concentration for half-maximal inhibition (IC50) amounted to 530 nM.

With `CC1CC(c2nnc3c(N)nccn23)CC(F)(F)C1` (single isomer, unassigned) [Example 217, 3-(trans-3,3-difluoro-5-methylcyclohexyl[1,2,4]triazolo[4,3-a]pyrazin-8-amine], the midpoint of inhibition, the IC50, lay at 100 nM. Compared with the last compound, the IC50 is about 5.3-fold lower.

`Nc1nccn2c(C3CCC4CC4C3)nnc12` (single isomer, unassigned) [Example 220, 3-(bicyclo[4.1.0]hept-3-yl) [1,2,4]triazolo[4,3-a]pyrazin-8-amine]: it took 110 nM to reach half-maximal inhibition (IC50).

Take `CCC1CCCCN1c1nnc2c(N)nccn12` (single isomer, unassigned) [Example 223, 3-(2-ethylpiperidin-1-yl) [1,2,4]triazolo[4,3-a]pyrazin-8-amine]: inhibition was half-maximal at 190 nM (IC50).

As for `Nc1nccn2c(N3CCCC(C(F)(F)F)C3)nnc12` (single isomer, unassigned) [Example 224], 170 nM corresponded to half-maximal inhibition (IC50).

The compound `Nc1nccn2c(N3CCCC(C(F)(F)F)C3)nnc12` (single isomer, unassigned) [Example 225] showed a concentration for half-maximal inhibition (IC50) of 540 nM.

For `CC1CC(C)CN(c2nnc3c(N)nccn23)C1` (single isomer, unassigned) [Example 227, 3-[trans-3,5-dimethylpiperidin-1-yl][1,2,4]triazolo[4,3-a]pyrazin-8-amine], the IC50 is 190 nM.

Regarding `CC1CCN(c2nnc3c(N)nccn23)CC1C` (single isomer, unassigned) [Example 228, 3-(3,4-dimethylpiperidin-1-yl) [1,2,4]triazolo[4,3-a]pyrazin-8-amine], the IC50 came to 540 nM.

`CC1CCN(c2nnc3c(N)nccn23)CC1C` (single isomer, unassigned) [Example 229, 3-(3,4-dimethylpiperidin-1-yl) [1,2,4]triazolo[4,3-a]pyrazin-8-amine] yielded an IC50 of 310 nM.

Regarding `CC1CCC(C)N(c2nnc3c(N)nccn23)C1` (single isomer, unassigned) [Example 233, 3-(2,5-dimethylpiperidin-1-yl) [1,2,4]triazolo[4,3-a]pyrazin-8-amine], the IC50 worked out at 100 nM.

For the compound `CC1CCC(C)N(c2nnc3c(N)ncc(C#N)n23)C1` (single isomer, unassigned) [Example 235, 8-amino-3-(2,5-dimethylpiperidin-1-yl) [1,2,4]triazolo[4,3-a]pyrazine-5-carbonitrile], the IC50 turned out to be 16 nM.

Regarding `CC1CCC(C)(C)CN1c1nnc2c(N)nccn12` (single isomer, unassigned) [Example 237, 3-(2,5,5-trimethylpiperidin-1-yl) [1,2,4]triazolo[4,3-a]pyrazin-8-amine], the IC50 is 2.8 nM.

Compound `CC1CCCCC1c1nnc2c(N)ncnn12` (single isomer, unassigned) [Example 239, 3-(cis-2-methylcyclohexyl) [1,2,4]triazolo[3,4-f][1,2,4]triazin-8-amine] returned a half-inhibitory concentration (IC50) of 110 nM. Compared with the last compound, the IC50 is about 39-fold higher.

In turn, `CC1CCCC(c2nnc3c(N)ncnn23)C1` (single isomer, unassigned) [Example 241, 3-(cis-3-methylcyclohexyl) [1,2,4]triazolo[3,4-f][1,2,4]triazin-8-amine] yielded a half-inhibitory concentration (IC50) of 230 nM.

For `CC1(C)CCCC(c2nnc3c(N)ncnn23)C1` (single isomer, unassigned) [Example 243, 3-(3,3-dimethylcyclohexyl) [1,2,4]triazolo[3,4-f][1,2,4]triazin-8-amine], the concentration for half-maximal inhibition (IC50) was 120 nM.

Turning to `Nc1ncnn2c(C3CCCC(C(F)(F)F)C3)nnc12` (single isomer, unassigned) [Example 245, 3-[cis-3-(trifluoromethyl)cyclohexyl][1,2,4]triazolo[3,4-f][1,2,4]triazin-8-amine], the concentration for half-maximal inhibition (IC50) was 850 nM. Compared with the last compound, the IC50 is about 7.1-fold higher.

For the compound `CC1CCC(F)(F)CC1c1nnc2c(N)ncnn12` (single isomer, unassigned) [Example 247, 3-(cis-5,5-difluoro-2-methylcyclohexyl) [1,2,4]triazolo[3,4-f][1,2,4]triazin-8-amine], the IC50 was determined as 629 nM. This IC50 and that of the compound before are within 1.5-fold of each other.

On to `C=C(C)[C@H]1CC[C@H](C)C(n2nnc3c(N)ncnc32)C1` (stereo in doubt) [Example 107, 3-[(1R,2S,5S)-2-methyl-5-(prop-1-en-2-yl)cyclohexyl]-3H-[1,2,3]triazolo[4,5-d]pyrimidin-7-amine], for which the 50% inhibitory concentration (IC50) was greater than 1000 nM and the inhibition at 1 µM came to 35%.

`Nc1nc(C(F)(F)F)nc2c1nnn2C1CCCCC1` [Example 6] had an IC50 of 340 nM.

The compound `C[C@]1(O)CC[C@@H](n2nnc3c(N)ncnc32)CC1` [Example 9] registered an IC50 of 890 nM.

In turn, `Nc1ncnc2c1nnn2C12CC3CC(CC(C3)C1)C2` [Example 10] displayed an IC50 of 100 nM.

Turning to `CC(C)(C)OC(=O)N1CCCC(n2nnc3c(N)ncnc32)C1` (stereo not shown) [Example 11], the IC50 was found to be 400 nM.

The compound `CC(C)(C)OC(=O)N1CCC[C@@H](n2nnc3c(N)ncnc32)C1` [Example 12, tert-butyl (3R)-3-(7-amino-3H-[1,2,3]triazolo[4,5-d]pyrimidin-3-yl)piperidine-1-carboxylate] showed an IC50 of 620 nM.

The compound `Nc1ncnc2c1nnn2-c1c(F)cccc1F` [Example 14] displayed an IC50 of 560 nM.

Regarding `CC(c1ccccc1)n1nnc2c(N)ncnc21` (stereo not shown) [Example 15], half-maximal inhibition (IC50) required 570 nM.
